Data taken from patent US20030044380A1, “Adhesive including medicament” (priority 2001, published 2003).
Values belong to the compound of their own block, whether it stands above or below them.

What was measured:
[1] = Solubility in formaldehyde acetone crosslinking solution; type: physicochemical
From the text: While not wishing to be limited to any particular mechanism, it is believed that the crosslinking step accounts, in part, for the encapsulation efficiency.

[2] = Direct blending of unencapsulated medicament with cyanoacrylic ester (storage stability); type: physicochemical
Experimental: Adhesive formulations including unencapsulated antibiotics were investigated. The medicaments were vacuum dried for 6 hours at room temperature in the presence of phosphorous pentoxide to remove the residual water. Direct blending of the medicaments with cyanoacrylic ester was conducted in a drying chamber protected by a high-purity nitrogen atmosphere.

[3] = Stability of medicament in aqueous solution or extract (UV, HPLC); conditions: physiologic saline or aqueous solution
From the text: Because the UV spectra of DSP and the extractive aqueous solution of Super Glue™ have overlapped absorptions at 240 nm, the release behavior of cyanoacrylate adhesives containing DSP microcapsules was studied by HPLC instead of UV spectroscopy.

[4] = Release of medicament from solidified adhesive film into physiologic saline; type: physicochemical; conditions: extract in physiologic saline, UV spectroscopy
Experimental: Samples of adhesive containing either encapsulated Penicillin G or unencapsulated Penicillin G were prepared as described above. Solidification of the adhesives was carried out in moist air so as to provide an accelerated solidification rate. The solidified adhesives having a thickness of about 1 mm were cut into small pieces which were immersed in physiologic saline at room temperature. The aqueous extracts were examined using UV spectroscopy.

solubility in a formaldehyde acetone solution [1]: relatively weak solubility
time to solidification after direct mixing ([2]; methyl cyanoacrylate (Super Glue) with dry powder, room temperature): about 3 hours
Compound: COc1c(N2CCNC(C)C2)c(F)cc2c(=O)c(C(=O)O)cn(C3CC3)c12 (stereo not drawn) [Gatifloxacin]

Compound: CC1(C)S[C@@H]2[C@H](NC(=O)Cc3ccccc3)C(=O)N2[C@H]1C(=O)[O-].[Na+] [Penicillin G, Penicillin G Sodium Salt]
stability in aqueous solution / aqueous extract [3]: observed to decompose during the release process
release from solidified adhesive film [4]: no detectable release
observation on direct mixing with Super Glue ([2]; unencapsulated medicament): Agglomeration was observed

Compound: Nc1ccc(S(N)(=O)=O)cc1 [Sulfanilamide, Sulfanilamidum Crystallinum Sterile]
shelf life of cyanoacrylate adhesives in the presence of unencapsulated medicament ([2]; direct blending under nitrogen): more than 24 hours
